One experiment deals with DLD-1 BRCA2−/− cells. Nature of the experiment: Homologous recombination synthetic lethal inhibition of proliferation, DLD-1 BRCA2-/- (Cell Titre Glo 3D). To be noted: Homo sapiens. The format is cell-based. In outline:
(§1)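 Read-out: CellTiter-Glo 3D luminescence, day 7 for wt DLD-1, day 12 for BRCA2−/−, about 8-9 population doublings each. Seeding 1,500 or 3,000 cells/mL respectively. Dose range 10 μM–0.51 nM, 3-fold, 10 points, with re-dosing on day 6. IC50 from curve fit.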

The next experiment has as its system DLD-1 cells. Nature of the experiment: Inhibition of proliferation, DLD-1 BRCA2 wt control (Cell Titre Glo 3D). The format is cell-based. The conditions noted are these: Homo sapiens. Put shortly:
as §1

[1] abbreviates: DLD-1, DLD-1 BRCA2 −/−, mean, read-out: POLQ PD Prolif Lumin BRCA2 −/− mean pIC50 (converted).
Where [2] appears, read: DLD-1, DLD1 BRCA2 wt, mean, read-out: POLQ PD Prolif Lumin DLD1 mean pIC50 (converted).
Setting [3] is: DLD-1, DLD-1 BRCA2 −/− cells, mean, read-out: POLQ PD Prolif Lumin BRCA2 −/− mean pIC50 (converted).
Where [4] appears, read: DLD-1, DLD1 BRCA2 wt cells, mean, read-out: POLQ PD Prolif Lumin DLD1 mean PIC50 (converted).
[5] abbreviates: DLD-1, 288 h, DLD-1 BRCA2−/− cells, 12 days, read-out: POLQ PD Prolif Lumin BRCA2 −/− mean pIC50 (converted).
The mark [6] stands for this setting: DLD-1, 168 h, DLD-1 BRCA2 wt cells, 7 days, read-out: POLQ PD Prolif Lumin DLD1 mean pIC50 (converted).
Where [7] appears, read: DLD-1, first proliferation column (c5), DLD-1 BRCA2-/-, read-out: POLQ PD Prolif Lumin (converted).
[8] abbreviates: DLD-1, second proliferation column (c6), DLD-1 BRCA2 wt control, read-out: POLQ PD Prolif Lumin (converted).

Like-named read-outs stand apart in the source and are kept apart here. Some results are limits rather than exact numbers.

As to `COc1ccc(Cl)cc1Cn1c(-c2ccc(OCCOCC(=O)O)cc2Cl)nc2c(OC3(C)CC3)ncnc21` [Example U48, 2-(2-(3-chloro-4-(9-(5-chloro-2-methoxybenzyl)-6-(1-methylcyclopropoxy)-9H-purin-8-yl)phenoxy)ethoxy)acetic acid], the values for the IC50 in the experiment on DLD-1 BRCA2−/− cells (setting [1]) and in the experiment on DLD-1 cells (setting [2]) were 631 nM and more than 10000 nM, respectively.

For `CC1(Oc2ncnc3c2nc(-c2cccc(/C=C/C(=O)O)c2Cl)n3Cc2cccc(Cl)c2)CC1` [Example T80, (E)-3-(2-chloro-3-(9-(3-chlorobenzyl)-6-(1-methylcyclopropoxy)-9H-purin-8-yl)phenyl)acrylic acid], the IC50 in the experiment on DLD-1 BRCA2−/− cells (setting [3]) is 100 nM; in the experiment on DLD-1 cells (setting [4]) it was more than 10000 nM.

As for `CC1(Oc2ncnc3c2nc(-c2ccc(OCCN)cc2Cl)n3Cc2ccccc2)CC1` [Example D23, 2-(4-(9-benzyl-6-(1-methylcyclopropoxy)-9H-purin-8-yl)-3-chlorophenoxy)ethan-1-amine], the IC50 in the experiment with DLD-1 BRCA2−/− cells (setting [5]) was 794 nM; in the experiment with DLD-1 cells (setting [6]) it was 7940 nM.

With `CC(C)C(CCOc1ccc(-c2nc3c(OC4(C)CC4)ncnc3n2Cc2cccc(Cl)c2)c(Cl)c1)C(=O)O` (racemic) [Example T566, 4-(3-chloro-4-(9-(3-chlorobenzyl)-6-(1-methylcyclopropoxy)-9H-purin-8-yl)phenoxy)-2-isopropylbutanoic acid], the IC50 in the experiment on DLD-1 BRCA2−/− cells (setting [7]) is 158 nM; with DLD-1 cells (setting [8]), more than 10000 nM.

`C[C@@H](Oc1cccc(-c2nc3c(OC4(C)CC4)ncnc3n2Cc2cccc(Cl)c2)c1Cl)C(=O)O` [Example T91, (R)-2-(2-chloro-3-(9-(3-chlorobenzyl)-6-(1-methylcyclopropoxy)-9H-purin-8-yl)phenoxy)propanoic acid]: the IC50 with DLD-1 BRCA2−/− cells (setting [3]) and with DLD-1 cells (setting [4]) was more than 10000 nM in each case.

Turning to `COc1ccc(Cl)cc1Cn1c(-c2cccc(CCC(=O)O)c2Cl)nc2c(OC3(C)CC3)ncnc21` [Example U64, 3-(2-chloro-3-(9-(5-chloro-2-methoxybenzyl)-6-(1-methylcyclopropoxy)-9H-purin-8-yl)phenyl)propanoic acid], the IC50 in the experiment with DLD-1 BRCA2−/− cells (setting [1]) was 100 nM; in the experiment on DLD-1 cells (setting [2]), more than 10000 nM.

For `CC1(Oc2ncnc3c2nc(-c2ccc(CN4CCCC4)cc2Cl)n3Cc2ccccc2)CC1` [Example N5, 9-benzyl-8-(2-chloro-4-(pyrrolidin-1-ylmethyl)phenyl)-6-(1-methylcyclopropoxy)-9H-purine], the IC50 in the experiment on DLD-1 BRCA2−/− cells (setting [5]) is 100 nM; in the experiment on DLD-1 cells (setting [6]), 3980 nM.

As to `CC1(Oc2ncnc3c2nc(-c2ccc(OCCN4C[C@@H]5CC[C@H]4CN5)cc2Cl)n3Cc2ccccc2)CC1` [Example R21, (1S,4S)-2-(2-(4-(9-benzyl-6-(1-methylcyclopropoxy)-9H-purin-8-yl)-3-chlorophenoxy)ethyl)-2,5-diazabicyclo[2.2.2]octane], the IC50 is 316 nM in the experiment with DLD-1 BRCA2−/− cells (setting [5]) and 1580 nM with DLD-1 cells (setting [6]).

`Cc1cnc(Cn2c(-c3cccc(OCCN4CC(O)C4)c3Cl)nc3c(OC4(C)CC4)ncnc32)s1` [Example T142, 1-(2-(2-chloro-3-(6-(1-methylcyclopropoxy)-9-((5-methylthiazol-2-yl)methyl)-9H-purin-8-yl)phenoxy)ethyl)azetidin-3-ol]: the results for the IC50 in the experiment with DLD-1 BRCA2−/− cells (setting [7]) and with DLD-1 cells (setting [8]) were 1000 nM and more than 10000 nM, respectively.

For `CN1CCN(CCOc2cc(F)c(-c3nc4c(OC5(C)CC5)ncnc4n3Cc3ccccc3)c(F)c2)CC1` [Example H1, 9-benzyl-8-(2,6-difluoro-4-(2-(4-methylpiperazin-1-yl)ethoxy)phenyl)-6-(1-methylcyclopropoxy)-9H-purine], the IC50 in the experiment on DLD-1 BRCA2−/− cells (setting [5]) is 200 nM; in the experiment with DLD-1 cells (setting [6]), 3980 nM.

For the compound `CC1(Oc2ncnc3c2nc(-c2ccc(N4CCC(N)CC4)cc2Cl)n3Cc2cc(Cl)ccn2)CC1` [Example T230, 1-(3-chloro-4-(9-((4-chloropyridin-2-yl)methyl)-6-(1-methylcyclopropoxy)-9H-purin-8-yl)phenyl)piperidin-4-amine], the IC50 with DLD-1 BRCA2−/− cells (DLD-1, DLD-1 BRCA2-/- proliferation, column head only partly shown, read-out: POLQ PD Prolif Lumin (converted)) is 398 nM; with DLD-1 cells (DLD-1, DLD-1 BRCA2 wt control proliferation, column head only partly shown, read-out: POLQ PD Prolif Lumin (converted)), more than 10000 nM.

Source of the values: patent publication US20250195530A1, “POLQ INHIBITORS” (ASTRAZENECA AB, priority 2022, published 2025).
